Laboratory results reported in PMC3066269 (Bioorganic & medicinal chemistry, 2011).

molecular target: hAChE-induced aggregation of Aβ1–40 (Homo sapiens, UniProt P22303); experiment: hAChE-induced Aβ aggregation inhibition, thioflavin T fluorescence; assay type: biochemical; conditions: 100 μM compound, 50 μM Aβ1–40, 24 h, ThT; NA = Not active
Sequence (P22303 32-614): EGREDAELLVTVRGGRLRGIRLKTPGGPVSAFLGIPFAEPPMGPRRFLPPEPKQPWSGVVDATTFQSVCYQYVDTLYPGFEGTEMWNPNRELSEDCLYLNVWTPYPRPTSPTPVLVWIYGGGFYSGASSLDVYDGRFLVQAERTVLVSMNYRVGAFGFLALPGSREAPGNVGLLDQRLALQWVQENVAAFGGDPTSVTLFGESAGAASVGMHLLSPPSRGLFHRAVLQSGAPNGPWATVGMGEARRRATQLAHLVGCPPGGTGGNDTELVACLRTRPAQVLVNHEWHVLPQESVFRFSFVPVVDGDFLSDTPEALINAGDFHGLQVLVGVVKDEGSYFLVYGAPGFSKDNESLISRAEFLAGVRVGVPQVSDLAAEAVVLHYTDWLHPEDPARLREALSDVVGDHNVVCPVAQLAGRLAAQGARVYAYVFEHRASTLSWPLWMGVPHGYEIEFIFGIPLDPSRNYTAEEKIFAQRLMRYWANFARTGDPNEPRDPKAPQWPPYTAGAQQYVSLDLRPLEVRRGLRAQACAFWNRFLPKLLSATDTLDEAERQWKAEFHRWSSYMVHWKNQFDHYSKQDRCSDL

Row | SMILES | Inhibition of hAChE-induced aggregation of Aβ1–40 at 100 μM ± SEM
1 | c1ccc(CCNc2ccnc(N3CCSCC3)n2)cc1 [8c, N-Phenethyl-2-thiomorpholinopyrimidin-4-amine] | either weak or no anti-aggregation activity
2 | c1ccc(CNc2ccnc(N3CCCC3)n2)cc1 [7a, N-Benzyl-2-(pyrrolidin-1-yl)pyrimidin-4-amine] | did not provide anti-aggregation activity
3 | c1ccc(CNc2ccnc(N3CCSCC3)n2)cc1 [7c, N-Benzyl-2-thiomorpholinopyrimidin-4-amine] | either weak or no anti-aggregation activity
